The source of these data is patent publication US20250304544A1, “MOLEPHANTIN DERIVATIVES USEFUL IN THE TREATMENT OF CANCER” (Nanyang Technological University, priority 2021, published 2025).

One assay relates to HCT116 cells xenograft. Put plainly: HCT116 subcutaneous tumour xenograft mouse model. It counts as in vivo. The conditions noted are these: HCT116 xenografted mice, 25 mg/kg intraperitoneal once every 2 days, after 21 days. How it is done: (§1) Female J:Nu outbred nude mice (5-6 weeks old) were injected subcutaneously at the right flank with 1×10^6 HCT116 or DLD-1 cells in 1:1 Hank's Balanced salt solution/Matrigel. Mice were assigned into treatment groups (4-5 mice per group) when tumour volumes reached 50-100 mm^3. Vehicle control (Ethanol:Kolliphor EL:saline=1:1:8), NYH001 (25 mg/kg), NYH002 (25 mg/kg) or 5-flurouracil (5-FU, 25 mg/kg) was given once every 2 days by intraperitoneal injection for 3 weeks. Bodyweight of the mice was taken every day and tumour size was measured twice a week. Tumour sizes were calculated using the formula, volume=(length×width^2)/2 mm^3. At the end of the 3 weeks treatment period, the mice were sacrificed and tumours excised. All procedures were approved by the NTU Institutional Animal Care and Use Committee (IACUC) and conducted in accordance with the IACUC protocol A20001.

The next assay concerns DLD-1 cells xenograft. Put plainly: DLD-1 subcutaneous tumour xenograft mouse model. Type of assay: in vivo. Conditions: DLD-1 xenografted mice, 25 mg/kg intraperitoneal once every 2 days, after 21 days. How it is done: as §1
The test system of another assay is DLD-1. Briefly: MTT cytotoxicity assay, DLD-1. It counts as cell-based. The conditions noted are these: Homo sapiens. On the procedure: (§2) To test the cytotoxicity effect of the compounds NYH001-NYH005 in various cancer cell types, different cancer cells were treated with the compounds for 48 hours and analyzed using MTT assay. […] Absolute IC50 values of the compounds were calculated (Table 1, FIG. 1A-C).

Another assay concerns HCT116. Put plainly: MTT cytotoxicity assay, HCT116. It counts as cell-based. The conditions noted are these: Homo sapiens, HCT-116, HCT116, colon carcinoma, 48 hours, absolute IC50. How it is done: as §2
(Tetrazolium assays rely on reduction of a dye to a coloured formazan, in cell work by metabolically active cells.)

The next assay relates to AGS. Briefly: MTT cytotoxicity assay, AGS. The conditions noted are these: Homo sapiens, stomach adenocarcinoma, 48 hours, absolute IC50. It counts as cell-based. How it is done: as §2
For the next assay, the system named is Hs746T. Briefly: MTT cytotoxicity assay, Hs746T. The conditions noted are these: Homo sapiens, stomach carcinoma, 48 hours, absolute IC50. It counts as cell-based. On the procedure:
as §2

For another assay, the system named is MDA-MB-231. Briefly: MTT cytotoxicity assay, MDA-MB-231. Type of assay: cell-based. The conditions noted are these: Homo sapiens, MDA-MB-231, breast adenocarcinoma, 48 hours, absolute IC50. On the procedure:
as §2

The next assay deals with Mcf-7. Briefly: MTT cytotoxicity assay, Mcf-7. It counts as cell-based. The conditions noted are these: Homo sapiens, MCF7, Mcf-7, breast adenocarcinoma, 48 hours, absolute IC50. On the procedure:
as §2

A further assay concerns Du145. Put plainly: MTT cytotoxicity assay, Du145. It counts as cell-based. Conditions: Homo sapiens, DU-145, Du145, prostate carcinoma, 48 hours, absolute IC50. On the procedure:
as §2

Another assay has as its system PC3. Briefly: MTT cytotoxicity assay, PC3. Conditions: Homo sapiens, PC-3, PC3, prostate adenocarcinoma, 48 hours, absolute IC50. Type of assay: cell-based. How it is done:
as §2

A further assay relates to H1299. Put plainly: MTT cytotoxicity assay, H1299. It counts as cell-based. Conditions: Homo sapiens, NCI-H1299, H1299, lung carcinoma, 48 hours, absolute IC50. How it is done: as §2
A further assay deals with A549. Put plainly: MTT cytotoxicity assay, A549. Conditions: Homo sapiens, A549, lung carcinoma, 48 hours, absolute IC50. Type of assay: cell-based. On the procedure:
as §2

Another assay relates to Huh7. Briefly: MTT cytotoxicity assay, Huh7. Type of assay: cell-based. Conditions: Homo sapiens, Huh-7, Huh7, liver carcinoma, 48 hours, absolute IC50. How it is done:
as §2

A further assay concerns Hep3B. Put plainly: MTT cytotoxicity assay, Hep3B. Type of assay: cell-based. Conditions: Homo sapiens, liver carcinoma, 48 hours, absolute IC50. How it is done: as §2
Assay [1] concerns human myeloid leukemia cell line K562. Conditions: cited from earlier work.
In assay [2] the test system is human hepatoma cell line (SMMC-7221). The conditions noted are these: cited from earlier work.
The subject of the next assay is cancer cells. Briefly: Colony formation (clonogenic) assay. Type of assay: cell-based. The conditions noted are these: some cell lines, concentration as low as 1 μM. How it is done:
To further confirm the growth inhibitory effect of compounds on cancer cells, colony formation assays were performed. Cells were treated with various doses of the compounds and allowed to grow for 7-10 days till they form colonies. Colonies were fixed and stained with 0.5% w/v crystal violet, containing methanol. The cell culture plates were rinsed with distilled water before scanning for quantification. Colony counts were quantified using Image J software.

Assay [3] relates to human KB oral carcinoma cells. The conditions noted are these: cytotoxic activity / proliferation; cited from earlier work.
The mark [4] stands for this setting: DLD-1, colon adenocarcinoma, 48 hours, MTT, absolute IC50, read-out: IC50.

The IC50 is the concentration needed to halve the response being measured.

Like-named read-outs stand apart in the source and are kept apart here.

With `O=c1[nH]cc(F)c(=O)[nH]1` [5-FU, 5-flurouracil, reference compound], in the assay on HCT116 cells xenograft, the “reduction of average tumor volume compared to vehicle control” value (“reduction of average tumor volume” for short) stood at 10.4% and the “reduction of average tumor weight compared to vehicle control” value (“reduction of average tumor weight” for short) is on record as 21.9%. Besides, in the assay on DLD-1 cells xenograft, the “reduction of average tumor volume” value is given as 32.3% and the “reduction of average tumor weight” value was determined as 38.7%.

As for `C=C(C)C(=O)O[C@H]1C/C(C)=C/C(=O)/C=C(/C)[C@@H](O)[C@H]2OC(=O)C(=C)C12` (some centres unmarked) [NYH001, Molephantin], the IC50 with DLD-1 (setting [4]) came out at 1500 nM; in the assay on HCT116 it was 2630 nM; in the assay with AGS, 1540 nM; with Hs746T, 1920 nM; in the assay on MDA-MB-231, 3050 nM; with Mcf-7, 4820 nM. Also, the IC50 in the assay with Du145 was 4180 nM; in the assay with PC3 it was 2440 nM; with H1299, 2970 nM; with A549, 15000 nM; in the assay with Huh7, 2880 nM; with Hep3B it was 3200 nM. Further, the IC50 in assay [1] (read-out: IC50) was 7900 nM; in assay [2] (read-out: IC50) it was 5800 nM. Besides, the “reduction of average tumor volume” value in the assay on HCT116 cells xenograft is listed as 35.4%. Further, the “reduction of average tumor weight” value in the assay with HCT116 cells xenograft came out at 41.7%.

On to `C=C(C)C(=O)O[C@H]1C/C(C)=C/C(=O)/C=C(/C)[C@@H](OC(=O)c2ccccc2)[C@H]2OC(=O)C(=C)C12` (some centres unmarked) [NYH002], for which the IC50 with DLD-1 (setting [4]) is 353 nM; with HCT116, 869 nM; in the assay on AGS, 421 nM; in the assay with Hs746T, 468 nM; in the assay on MDA-MB-231, 909 nM; with Mcf-7, 2000 nM. For the same compound, the IC50 in the assay with Du145 came out at 2360 nM; in the assay with PC3, 1280 nM; in the assay on H1299 it was 1350 nM; in the assay with A549, 5080 nM; in the assay with Huh7, 1160 nM; in the assay with Hep3B it was 911 nM. In addition, the colonies formed entry in the assay with cancer cells is “did not result in any colonies formed”. The “reduction of average tumor volume” value in the assay with HCT116 cells xenograft is reported as 46.5%; with DLD-1 cells xenograft it was 51.9%. Further, the “reduction of average tumor weight” value stood at 49.3% with HCT116 cells xenograft and 57.3% with DLD-1 cells xenograft.

For the compound `C=C(C)C(=O)O[C@H]1C/C(C)=C/C(=O)/C=C(/C)[C@@H](OC(=O)c2ccc(C(F)(F)F)cc2)[C@H]2OC(=O)C(=C)C12` (some centres unmarked) [NYH004], the IC50 with DLD-1 (setting [4]) was determined as 933 nM; in the assay on HCT116 it was 1300 nM; in the assay on AGS, 1020 nM; in the assay with Hs746T, 1190 nM; with MDA-MB-231, 1140 nM; in the assay with Mcf-7, 2040 nM. Besides, the IC50 came to 3000 nM in the assay on Du145; 1970 nM in the assay with PC3; 1670 nM in the assay with H1299; 5230 nM in the assay with A549; 1590 nM with Huh7; 1850 nM in the assay on Hep3B.

Take `C=C(C)C(=O)O[C@H]1C/C(C)=C/C(=O)/C=C(/C)[C@@H](OC(=O)c2cc(C(F)(F)F)cc(C(F)(F)F)c2)[C@H]2OC(=O)C(=C)C12` (some centres unmarked) [NYH005]: the IC50 in the assay with DLD-1 (setting [4]) is 615 nM; with HCT116, 1590 nM; in the assay with AGS it was 1120 nM; in the assay on Hs746T it was 1940 nM; with MDA-MB-231, 1470 nM; in the assay with Mcf-7 it was 2380 nM. The IC50 with Du145 is 3600 nM; in the assay on PC3, 2480 nM; with H1299 it was 1550 nM; in the assay on A549 it was 5860 nM; in the assay with Huh7 it was 2090 nM; in the assay on Hep3B, 2000 nM.

On to `C=C(C)C(=O)O[C@H]1C/C(C)=C/C(=O)/C=C(/C)[C@@H](OC(=O)c2ccc([N+](=O)[O-])cc2)[C@H]2OC(=O)C(=C)C12` (some centres unmarked) [NYH007], for which the IC50 in the assay on DLD-1 (DLD-1 cells, read-out: IC50 (cytotoxic effect)) was determined as 350 nM.

`C=C(C)C(=O)O[C@H]1C/C(C)=C\[C@@]2(OC)C=C(C)[C@@H](O2)[C@H]2OC(=O)[C@@H](COC)[C@@H]21` [Tomenphantopin-C]: the IC50 result in [1] and in assay [2] was “inactive” throughout.

As to Tomenphantine-A, in [3], the ED50 is 3.0 µg/mL.

For Tomenphantine-B, the ED50 in assay [3] is 2.7 µg/mL.

With Tomenphantopin-A, the ED50 in assay [3] was 2.5 µg/mL.

As to Tomenphantopin-B, the ED50 in [3] was 5.0 µg/mL.

Take Tomenphantopin-D: the IC50 in assay [1] (read-out: IC50) was 44800 nM; in assay [2] (read-out: IC50), 11200 nM.

For the compound Tomenphantopin-E, the IC50 result in [1] and in assay [2] was “inactive” in each case.

Turning to Tomenphantopin-F, the concentration for half-maximal inhibition (IC50) entry in [1] and in assay [2] was “inactive” in each case.
